The record followed here is BindingDB's records for doi:10.1007/s00213-002-1073-7 (WestfÄLische Wilhelms-Universit&Auml, 2002).

Test [1] has as its target 5-hydroxytryptamine receptor 6 (Homo sapiens, UniProt P50406).
The target of test [2] is T1, 5-hydroxytryptamine receptor 2C (Rattus norvegicus, UniProt P08909).
T1 sequence (P08909 whole entry): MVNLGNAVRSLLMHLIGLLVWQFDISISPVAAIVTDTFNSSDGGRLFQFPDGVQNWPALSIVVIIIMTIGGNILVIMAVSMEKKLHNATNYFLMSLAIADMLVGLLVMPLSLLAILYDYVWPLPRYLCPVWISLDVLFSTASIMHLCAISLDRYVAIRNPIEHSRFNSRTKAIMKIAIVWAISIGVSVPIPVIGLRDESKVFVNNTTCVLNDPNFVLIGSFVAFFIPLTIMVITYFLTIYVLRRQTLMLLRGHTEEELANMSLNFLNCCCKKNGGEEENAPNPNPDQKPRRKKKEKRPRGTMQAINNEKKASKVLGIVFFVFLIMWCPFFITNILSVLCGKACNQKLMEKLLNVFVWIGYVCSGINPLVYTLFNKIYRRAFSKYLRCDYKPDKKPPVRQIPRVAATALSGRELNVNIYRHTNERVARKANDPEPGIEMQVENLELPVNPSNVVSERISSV

The target of test [3] is T2, Muscarinic acetylcholine receptor M2 (Homo sapiens, UniProt P08172).
T2 sequence (P08172 whole entry): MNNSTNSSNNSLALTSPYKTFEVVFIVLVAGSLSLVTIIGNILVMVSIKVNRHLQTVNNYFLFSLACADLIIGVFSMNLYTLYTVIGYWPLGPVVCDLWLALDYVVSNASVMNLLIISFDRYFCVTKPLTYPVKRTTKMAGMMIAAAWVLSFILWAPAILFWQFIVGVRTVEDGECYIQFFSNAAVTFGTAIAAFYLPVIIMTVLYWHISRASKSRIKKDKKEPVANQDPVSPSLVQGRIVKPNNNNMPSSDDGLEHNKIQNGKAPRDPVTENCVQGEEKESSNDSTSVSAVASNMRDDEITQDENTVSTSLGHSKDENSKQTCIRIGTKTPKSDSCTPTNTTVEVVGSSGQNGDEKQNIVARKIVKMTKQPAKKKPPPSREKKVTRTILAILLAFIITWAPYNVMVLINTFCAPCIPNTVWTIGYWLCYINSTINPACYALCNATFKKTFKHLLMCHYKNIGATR

For test [4], the target named is Delta-type opioid receptor (Sus scrofa, UniProt P79291).
Sequence of Delta-type opioid receptor (Sus scrofa, UniProt P79291) (P79291 whole entry): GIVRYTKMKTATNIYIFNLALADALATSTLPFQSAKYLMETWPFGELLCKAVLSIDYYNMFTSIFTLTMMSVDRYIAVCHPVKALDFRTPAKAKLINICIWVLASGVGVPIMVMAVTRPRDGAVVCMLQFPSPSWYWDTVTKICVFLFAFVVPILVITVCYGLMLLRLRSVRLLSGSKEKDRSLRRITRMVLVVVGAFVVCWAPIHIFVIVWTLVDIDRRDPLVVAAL
Test [5] has as its target T3, Alpha-2A adrenergic receptor (Homo sapiens, UniProt P08913).
T3 sequence (P08913 whole entry): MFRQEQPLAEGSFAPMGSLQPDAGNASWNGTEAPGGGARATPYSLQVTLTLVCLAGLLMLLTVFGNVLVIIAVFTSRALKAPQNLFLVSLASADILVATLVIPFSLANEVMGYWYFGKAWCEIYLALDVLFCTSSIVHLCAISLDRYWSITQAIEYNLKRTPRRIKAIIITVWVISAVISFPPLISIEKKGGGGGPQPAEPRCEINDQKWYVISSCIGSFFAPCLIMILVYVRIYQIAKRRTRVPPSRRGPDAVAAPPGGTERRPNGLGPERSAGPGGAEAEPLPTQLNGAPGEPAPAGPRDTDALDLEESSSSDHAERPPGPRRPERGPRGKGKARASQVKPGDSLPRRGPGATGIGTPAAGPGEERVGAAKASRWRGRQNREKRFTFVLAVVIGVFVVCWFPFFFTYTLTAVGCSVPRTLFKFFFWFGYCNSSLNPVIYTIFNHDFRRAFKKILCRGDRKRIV

Test [6] has as its target Delta-type opioid receptor (Homo sapiens, UniProt P41143).
In another test the target is Mu-type opioid receptor (Homo sapiens, UniProt P35372).
Sequence of Mu-type opioid receptor (P35372 whole entry): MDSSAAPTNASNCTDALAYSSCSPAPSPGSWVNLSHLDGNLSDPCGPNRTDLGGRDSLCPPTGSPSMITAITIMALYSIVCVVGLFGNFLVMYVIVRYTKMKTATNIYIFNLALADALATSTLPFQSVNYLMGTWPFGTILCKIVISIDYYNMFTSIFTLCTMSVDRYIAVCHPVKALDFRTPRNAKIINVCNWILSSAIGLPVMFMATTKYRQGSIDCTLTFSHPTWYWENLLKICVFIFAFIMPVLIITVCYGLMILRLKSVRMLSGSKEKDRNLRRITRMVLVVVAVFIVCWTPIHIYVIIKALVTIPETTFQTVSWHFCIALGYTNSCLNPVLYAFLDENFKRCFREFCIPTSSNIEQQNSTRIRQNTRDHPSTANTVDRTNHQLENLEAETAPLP
For test [7], the target named is Sodium-dependent noradrenaline transporter (Homo sapiens, UniProt P23975).
Sequence of Sodium-dependent noradrenaline transporter (P23975 whole entry): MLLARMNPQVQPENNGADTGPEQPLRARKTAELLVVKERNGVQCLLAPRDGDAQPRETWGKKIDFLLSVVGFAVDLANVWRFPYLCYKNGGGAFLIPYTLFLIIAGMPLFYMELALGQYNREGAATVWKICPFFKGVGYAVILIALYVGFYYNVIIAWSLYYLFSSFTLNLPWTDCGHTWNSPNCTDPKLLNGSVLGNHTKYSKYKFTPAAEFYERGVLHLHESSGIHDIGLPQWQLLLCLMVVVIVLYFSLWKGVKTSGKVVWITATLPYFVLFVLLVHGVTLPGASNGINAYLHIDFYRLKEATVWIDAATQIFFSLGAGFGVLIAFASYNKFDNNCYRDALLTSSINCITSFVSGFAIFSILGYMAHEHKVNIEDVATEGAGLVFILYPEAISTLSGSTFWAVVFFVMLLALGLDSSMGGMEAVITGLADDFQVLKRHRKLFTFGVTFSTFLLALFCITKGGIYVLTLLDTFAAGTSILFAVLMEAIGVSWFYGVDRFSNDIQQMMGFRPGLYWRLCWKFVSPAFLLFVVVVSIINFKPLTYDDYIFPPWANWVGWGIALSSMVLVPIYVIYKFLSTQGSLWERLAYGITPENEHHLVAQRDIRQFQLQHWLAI
The target of test [8] is 5-hydroxytryptamine receptor 1B (Homo sapiens, UniProt P28222).
Sequence of 5-hydroxytryptamine receptor 1B (P28222 whole entry): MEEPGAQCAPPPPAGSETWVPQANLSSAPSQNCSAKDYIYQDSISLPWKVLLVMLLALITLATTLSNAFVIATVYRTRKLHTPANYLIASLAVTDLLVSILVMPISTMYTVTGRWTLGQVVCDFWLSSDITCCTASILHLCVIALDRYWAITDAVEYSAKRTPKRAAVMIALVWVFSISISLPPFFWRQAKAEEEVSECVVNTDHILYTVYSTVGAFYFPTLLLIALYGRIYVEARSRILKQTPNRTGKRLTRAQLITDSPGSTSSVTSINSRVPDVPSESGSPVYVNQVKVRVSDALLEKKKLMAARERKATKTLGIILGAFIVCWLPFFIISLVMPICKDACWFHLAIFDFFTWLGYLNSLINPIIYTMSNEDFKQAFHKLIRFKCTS
For test [9], the target named is T4, Alpha-1A adrenergic receptor (Homo sapiens, UniProt P35348).
T4 sequence (P35348 whole entry): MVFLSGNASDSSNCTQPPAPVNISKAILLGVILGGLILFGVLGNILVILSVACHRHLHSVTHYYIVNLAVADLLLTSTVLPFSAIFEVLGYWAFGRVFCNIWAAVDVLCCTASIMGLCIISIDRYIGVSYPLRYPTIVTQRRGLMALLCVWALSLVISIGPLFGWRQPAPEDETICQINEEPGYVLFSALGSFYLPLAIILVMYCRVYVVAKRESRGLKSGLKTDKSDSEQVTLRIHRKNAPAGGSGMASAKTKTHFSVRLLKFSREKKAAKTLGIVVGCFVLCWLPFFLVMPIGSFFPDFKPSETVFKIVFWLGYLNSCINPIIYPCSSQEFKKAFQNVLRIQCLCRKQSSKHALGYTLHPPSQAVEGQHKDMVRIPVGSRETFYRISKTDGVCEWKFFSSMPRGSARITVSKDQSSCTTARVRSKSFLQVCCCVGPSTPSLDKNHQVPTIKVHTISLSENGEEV

Test [10] addresses Glutamate receptor ionotropic, NMDA 1 (Rattus norvegicus, UniProt P35439).
Another test concerns the target Vasopressin V2 receptor (Homo sapiens, UniProt P30518).
Test [11] has as its target 5-hydroxytryptamine receptor 2C (Homo sapiens, UniProt P28335).
The target in test [12] is Sodium-dependent serotonin transporter (Homo sapiens, UniProt P31645).
Sequence of Sodium-dependent serotonin transporter (P31645 whole entry): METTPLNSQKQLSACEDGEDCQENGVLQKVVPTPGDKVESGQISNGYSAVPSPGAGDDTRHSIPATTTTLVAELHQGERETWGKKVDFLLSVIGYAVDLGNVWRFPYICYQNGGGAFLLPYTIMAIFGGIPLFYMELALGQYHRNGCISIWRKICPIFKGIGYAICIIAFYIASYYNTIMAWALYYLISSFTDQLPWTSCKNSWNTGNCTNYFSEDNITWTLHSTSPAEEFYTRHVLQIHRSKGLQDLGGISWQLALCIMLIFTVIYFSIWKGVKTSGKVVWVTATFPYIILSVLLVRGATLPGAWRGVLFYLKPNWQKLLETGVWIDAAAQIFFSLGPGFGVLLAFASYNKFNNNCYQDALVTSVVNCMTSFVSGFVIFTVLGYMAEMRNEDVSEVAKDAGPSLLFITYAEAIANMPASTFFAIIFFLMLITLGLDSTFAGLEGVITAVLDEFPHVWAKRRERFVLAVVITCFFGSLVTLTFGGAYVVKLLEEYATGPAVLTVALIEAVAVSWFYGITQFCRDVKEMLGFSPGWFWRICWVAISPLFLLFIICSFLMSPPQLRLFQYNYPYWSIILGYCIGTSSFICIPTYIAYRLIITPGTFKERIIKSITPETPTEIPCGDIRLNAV
The target in test [13] is Gamma-aminobutyric acid receptor subunit alpha-1 (Rattus norvegicus, UniProt P62813).
Sequence of Gamma-aminobutyric acid receptor subunit alpha-1 (P62813 whole entry): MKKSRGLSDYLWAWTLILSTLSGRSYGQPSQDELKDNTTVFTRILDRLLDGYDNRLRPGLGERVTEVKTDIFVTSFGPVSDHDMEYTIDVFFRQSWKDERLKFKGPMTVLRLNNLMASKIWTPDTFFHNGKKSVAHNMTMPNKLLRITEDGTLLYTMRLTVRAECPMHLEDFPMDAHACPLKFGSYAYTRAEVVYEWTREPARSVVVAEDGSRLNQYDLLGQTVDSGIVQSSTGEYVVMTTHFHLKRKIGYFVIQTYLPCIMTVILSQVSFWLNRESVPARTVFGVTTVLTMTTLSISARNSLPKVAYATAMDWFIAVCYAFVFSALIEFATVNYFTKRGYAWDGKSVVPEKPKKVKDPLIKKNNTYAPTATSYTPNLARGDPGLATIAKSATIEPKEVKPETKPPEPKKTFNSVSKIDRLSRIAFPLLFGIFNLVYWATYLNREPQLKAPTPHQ

Sequence of 5-hydroxytryptamine receptor 6 (P50406 whole entry): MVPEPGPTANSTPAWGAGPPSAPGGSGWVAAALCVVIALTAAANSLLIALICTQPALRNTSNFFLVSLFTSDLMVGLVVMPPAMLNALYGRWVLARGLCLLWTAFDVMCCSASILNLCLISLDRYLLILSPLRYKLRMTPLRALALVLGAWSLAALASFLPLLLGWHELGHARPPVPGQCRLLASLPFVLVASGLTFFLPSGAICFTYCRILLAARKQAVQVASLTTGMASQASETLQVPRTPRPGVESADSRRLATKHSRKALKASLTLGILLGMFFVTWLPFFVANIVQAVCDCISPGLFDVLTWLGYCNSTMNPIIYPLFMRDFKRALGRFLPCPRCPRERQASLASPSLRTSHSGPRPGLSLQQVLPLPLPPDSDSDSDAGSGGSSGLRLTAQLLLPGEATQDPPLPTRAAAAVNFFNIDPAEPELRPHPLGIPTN
Sequence of Vasopressin V2 receptor (P30518 whole entry): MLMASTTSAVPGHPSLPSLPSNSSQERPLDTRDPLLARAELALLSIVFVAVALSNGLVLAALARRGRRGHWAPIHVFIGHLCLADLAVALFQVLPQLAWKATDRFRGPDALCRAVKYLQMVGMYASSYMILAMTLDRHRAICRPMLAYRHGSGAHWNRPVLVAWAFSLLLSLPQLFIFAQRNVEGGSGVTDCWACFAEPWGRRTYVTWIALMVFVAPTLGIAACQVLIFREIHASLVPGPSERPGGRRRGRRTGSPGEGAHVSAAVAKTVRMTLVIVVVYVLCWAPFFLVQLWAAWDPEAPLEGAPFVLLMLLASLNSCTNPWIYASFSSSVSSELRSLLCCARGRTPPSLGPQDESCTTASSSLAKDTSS
Sequence of Delta-type opioid receptor (Homo sapiens, UniProt P41143) (P41143 whole entry): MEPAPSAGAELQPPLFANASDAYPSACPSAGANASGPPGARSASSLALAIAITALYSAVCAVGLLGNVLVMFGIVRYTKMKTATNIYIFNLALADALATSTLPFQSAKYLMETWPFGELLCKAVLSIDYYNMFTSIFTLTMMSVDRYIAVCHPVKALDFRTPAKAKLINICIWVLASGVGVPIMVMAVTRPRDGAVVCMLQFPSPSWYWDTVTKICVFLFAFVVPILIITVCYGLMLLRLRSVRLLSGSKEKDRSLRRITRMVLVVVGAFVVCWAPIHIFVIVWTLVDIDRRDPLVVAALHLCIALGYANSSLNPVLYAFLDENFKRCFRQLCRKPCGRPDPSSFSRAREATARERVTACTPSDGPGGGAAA
Sequence of 5-hydroxytryptamine receptor 2C (Homo sapiens, UniProt P28335) (P28335 whole entry): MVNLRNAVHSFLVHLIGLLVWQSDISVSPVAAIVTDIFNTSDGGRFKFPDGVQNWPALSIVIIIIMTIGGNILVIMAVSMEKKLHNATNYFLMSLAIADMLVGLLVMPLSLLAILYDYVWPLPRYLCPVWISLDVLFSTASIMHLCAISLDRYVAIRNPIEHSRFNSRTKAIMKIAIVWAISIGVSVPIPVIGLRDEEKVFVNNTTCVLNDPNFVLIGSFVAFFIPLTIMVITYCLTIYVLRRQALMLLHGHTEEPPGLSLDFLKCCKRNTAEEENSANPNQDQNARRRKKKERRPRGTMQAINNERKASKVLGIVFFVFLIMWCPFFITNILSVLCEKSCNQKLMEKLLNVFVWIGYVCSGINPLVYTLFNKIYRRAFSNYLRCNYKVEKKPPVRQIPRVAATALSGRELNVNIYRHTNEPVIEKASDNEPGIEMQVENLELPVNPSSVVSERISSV

Regarding `O=c1c(O)c(-c2ccc(O)c(O)c2)oc2cc(O)cc(O)c12` [2-(3,4-dihydroxyphenyl)-3,5,7-trihydroxy-chromone;hydrate], the Ki in test [1], in test [2], in test [3], in test [4] and in [5] was greater than 10 µM each time.

Regarding `O=c1cc(O)cc2oc(-c3ccc(O)c(-c4c(O)cc(O)c5c(=O)cc(-c6ccc(O)cc6)oc45)c3)cc(O)c1-2`, the Ki in test [6] was 0.0365 µM; in test [1] it was greater than 10 µM; on Mu-type opioid receptor it was greater than 10 µM; in test [7], greater than 10 µM; in test [8], 4.09 µM; in test [9], greater than 10 µM. Moreover, the Ki is greater than 10 µM in test [3]; greater than 10 µM in test [10]; greater than 10 µM at Vasopressin V2 receptor; 2.56 µM in test [11]; greater than 10 µM in test [5].

Turning to `C[C@@H]1O[C@@H](Oc2c(-c3ccc(O)c(O)c3)oc3cc(O)cc(=O)c-3c2O)[C@H](O)[C@H](O)[C@H]1O`, the Ki (in test [1]; at Mu-type opioid receptor; in test [12]; in test [7]; in test [9]; in test [2]) was greater than 10 µM throughout. Also, the Ki (in [3]; in test [13]; in test [10]; in [4]; at Vasopressin V2 receptor; in test [5]) was greater than 10 µM in each case.

For the compound `O=c1cc(O)cc2oc(-c3ccc(O)c(O)c3)c(OC3OC(CO)C(O)C(O)C3O)c(O)c1-2` (configuration not stated) [NSC_5318390], the Ki (in test [1]; on Mu-type opioid receptor; in test [12]; in test [7]; in test [9]; in [2]) was greater than 10 µM each time. The Ki (in [3]; in test [13]; in test [10]; in [4]; at Vasopressin V2 receptor) was greater than 10 µM in each case.

With `C[C@@H]1O[C@@H](OC[C@H]2O[C@@H](Oc3c(-c4ccc(O)c(O)c4)oc4cc(O)cc(O)c4c3=O)[C@H](O)[C@@H](O)[C@@H]2O)[C@H](O)[C@H](O)[C@H]1O` [3-Rhamnoglucosylquercetin], the Ki (in test [1]; at Mu-type opioid receptor; in test [12]; in [7]; in test [9]; in [2]) was greater than 10 µM each time. In addition, the Ki in [3] was greater than 10 µM; in [13] it was greater than 10 µM; in test [10] it was greater than 10 µM; in [4], greater than 10 µM; on Vasopressin V2 receptor, greater than 10 µM; in [5], 9.34 µM.

As for `CC(C)=CCC[C@]1(C)[C@@H](CC=C(C)C)C[C@]2(CC=C(C)C)C(=O)C(CC=C(C)C)C(=O)[C@]1(C(=O)C(C)C)C2=O` (some centres not stated), the Ki (in test [1]; at Mu-type opioid receptor; in test [7]; in test [9]; in test [2]; in test [3]) was greater than 10 µM throughout. The Ki (in test [13]; in test [10]; in test [4]; at Vasopressin V2 receptor; in test [5]) was greater than 10 µM each time.
